Key:
Assay type in all cases: functional, cell-based
[1] = test system: MCF7; test: Antiproliferative activity against human MCF7 cells after 72 hrs by MTT assay; conditions: MCF7, 72 h
[2] = test system: PC-3; test: Antiproliferative activity against human PC3 cells after 72 hrs by MTT assay; conditions: PC-3, 72 h
[3] = test system: MGC-803; test: Antiproliferative activity against human MGC803 cells after 72 hrs by MTT assay; conditions: MGC-803, 72 h
[4] = test system: EC9706; test: Antiproliferative activity against human EC9706 cells after 72 hrs by MTT assay; conditions: EC9706, 72 h
[5] = test system: SMMC-7721; test: Antiproliferative activity against human SMMC7721 cells after 72 hrs by MTT assay; conditions: SMMC-7721, 72 h
[6] = test system: ECa-109 cell line; test: Antiproliferative activity against human EC109 cells after 72 hrs by MTT assay; conditions: ECa-109, 72 h

Compound | IC50 [1] [µM] | IC50 [2] [µM] | IC50 [3] [µM] | IC50 [4] [µM] | IC50 [5] [µM] | IC50 [6] [µM]
C/C(=N\NC(=O)c1cccc(S(=O)(=O)N2CCOCC2)c1)c1cc(F)ccc1O | 6.65 | 4.41 | 2.26 | 2.21 | 1.15 | 3.27
C/C(=N\NC(=O)c1cccc(S(=O)(=O)N2CCOCC2)c1)c1cc(O)ccc1O | > 100 | > 100 | 9.09 | 3.51 | > 100 | 21.4
C/C(=N\NC(=O)c1cccc(S(=O)(=O)N2CCOCC2)c1)c1ccccc1O | 5.4 | 2.81 | 1.22 | 1.22 | 1.37 | 5.45
CCOc1cccc(/C=N/NC(=O)c2cccc(S(=O)(=O)N3CCOCC3)c2)c1O | 19.3 | 15.3 | 18 | 15.4 | 6.99 | 16.5
C/C(=N\NC(=O)c1cccc(S(=O)(=O)N2CCOCC2)c1)c1cccc(N)c1O | 1.01 | 2.33 | 0.53 | 3.52 | 2.33 | 5.06
O=C(N/N=C/c1ccccn1)c1cccc(S(=O)(=O)N2CCOCC2)c1 | > 100 | 88.1 | 81.7 | 44.3 | > 100 | 55.7
C/C(=N\NC(=O)c1cccc(S(=O)(=O)N2CCOCC2)c1)c1ccccc1 | > 100 | > 100 | > 100 | > 100 | > 100 | > 100
O=C(N/N=C/c1cc(Br)ccc1O)c1cccc(S(=O)(=O)N2CCOCC2)c1 | 26.6 | 7.23 | 14.8 | 29.7 | 9.94 | 11.7
O=C(N/N=C/c1ccccc1O)c1cccc(S(=O)(=O)N2CCOCC2)c1 | 29.1 | 13.8 | 25.3 | 19.6 | 12.1 | 14.4
O=C(N/N=C/c1ccco1)c1cccc(S(=O)(=O)N2CCOCC2)c1 | > 100 | > 100 | > 100 | > 100 | > 100 | > 100
O=C(N/N=C/c1cc(Br)cc(Br)c1O)c1cccc(S(=O)(=O)N2CCOCC2)c1 | 16 | 9.7 | 17.8 | 2.44 | 7.31 | 10.3
O=C(N/N=C/c1cc(Cl)ccc1O)c1cccc(S(=O)(=O)N2CCOCC2)c1 | 16.4 | 10.5 | 11 | 2.15 | 6.82 | 2.84
C/C(=N\NC(=O)c1cccc(S(=O)(=O)N2CCOCC2)c1)c1cccc(N)c1 | > 100 | > 100 | > 100 | > 100 | > 100 | > 100
O=c1[nH]cc(F)c(=O)[nH]1 [FLUOROURACIL] | 18.8 | 6.27 | 9.24 | 5.13 | 13.7 | 6.02
NNC(=O)c1cccc(S(=O)(=O)N2CCOCC2)c1 | – | – | – | > 100 | – | > 100
C/C(=N\NC(=O)c1cccc(S(=O)(=O)N2CCOCC2)c1)c1cccc(O)c1 | > 100 | > 100 | > 100 | > 100 | > 100 | > 100
C/C(=N\NC(=O)c1cccc(S(=O)(=O)N2CCOCC2)c1)c1cc(Br)ccc1O | 7.83 | 6.89 | 18 | 24.7 | 2.41 | 5.28
C/C(=N\NC(=O)c1cccc(S(=O)(=O)N2CCOCC2)c1)c1ccc(O)cc1 | > 100 | 36.2 | 71.4 | 71.4 | 88.5 | 88.3
O=C(N/N=C/c1cccs1)c1cccc(S(=O)(=O)N2CCOCC2)c1 | > 100 | > 100 | > 100 | > 100 | > 100 | > 100
CCN(CC)c1ccc(/C=N/NC(=O)c2cccc(S(=O)(=O)N3CCOCC3)c2)c(O)c1 | 3.52 | 14 | 4.04 | 0.92 | 27.1 | 0.73
C/C(=N\NC(=O)c1cccc(S(=O)(=O)N2CCOCC2)c1)c1ccc(F)cc1 | > 100 | 81.3 | > 100 | > 100 | > 100 | > 100

Reference: ChEMBL document CHEMBL4196033, “Potent hydrazone derivatives targeting esophageal cancer cells” (Eur J Med Chem, 2018)
